From patent EP3609473B1, “ORAL COMPOSITIONS FOR THE TREATMENT OF IRON […]” (Labomar S.p.A., priority 2017, dated 2018)

Conditions: after SGF, 50 ml simulated intestinal fluid (SIF) added, pH settled at 6.0 with NaOH 2.5% w/v
Procedure: The solid composition (A) is maintained for 90 minutes (corresponding to the empty stomach emptying time) in a simulated gastric environment (SGF) pH 1.5 by adding HCl, thermostated at 37°C.
Subsequently, 50 ml of simulated intestinal fluid (SIF) are added to the system to simulate the transit in the first intestinal tract and the pH is settled at 6.0 with NaOH 2.5% w/v.

SMILES: NCC(=O)[O-].NCC(=O)[O-].[Fe+2] [bisglycinate iron, ferrous bisglycinate]
- colour of the liquid (purple = iron in reduced form; amber = no more reducible ferric oxides): amber-coloured liquid
